Measured values reported in paper PMC5048394, “Development and substrate specificity screening of an in vivo biosensor for the detection of biomass derived aromatic chemical building blocks” (Chemical Communications (Cambridge, England), 2016).
Read-outs that look alike come from different tables or passages of the source.

Columns and labels:
PPC biosensor [1] = assay: PPC biosensor eGFP expression in E. coli K strain (DH10B, Top10F'); assay type: cell-based
Experimental: (§1) Cells were centrifuged, washed and re-suspended with PBS buffer. The expression output was then analyzed by monitoring the fluorescence normalised to cell density (RFU/OD600) in a multimode plate reader (Methods, ESI ^†).
(§2) The sequences containing the PLC, PPC and PferB promoters, a RBS, and a Hexa-Histidine tag, flanked by SphI/NdeI were synthetized (GeneART, ThermoFisher). The sequences were enzyme restricted with SphI/NdeI and cloned in pET44eGFP,2 upstream to the eGFP gene, replacing the T7 promoter region generating respectively, the pET44PLCeGFP, pET44PPCeGFP and pET44PferBeGFP vectors.
(§3) The FerCA DNA sequence containing the ferA and ferC genes, individually flanked by a PLacI promoter and an rrn_B1 terminator, was synthetized by GeneARTTM (ThermoFisher).
(§4) The construct was cloned in a p15 plasmid flanked by NaeI/KasI restriction sites generating […]
(§5) the p15FerCA vector. […]
(§6) Biosensors Performance and Screening Methods
(§7) Reporter controls and the biosensor systems PLC, PPC and PferB were respectively generated by transformation of pET44PLCeGFP, pET44PPCeGFP and pET44PFerBeGFP vectors alone or with p15FerCA in BL21 and DH10B chemically competent E. coli cells. A single colony of each system was grown in LB media supplemented with antibiotics at 37 °C with shaking at 180rpm for 16 hours. Cultures were diluted (1:100) in fresh LB media with appropriate antibiotics, re-incubated at 37 °C with shaking until OD ~0.6 and transferred (450 μL) to multi- […]
(§8) μM and 1000 μM. Induction plates were incubated at 37 °C, with shaking at 1000 RPM (Stuart microtitre plate shaker incubator) for 3 hours. Cells were harvested by centrifugation, washed twice and re-suspended with PBS buffer. Expression output was analyzed by monitoring the fluorescence normalised to cell density (RFU/OD) in a multimode plate reader. […]
(§9) Data Processing and Curve Fitting
(§10) Biosensor signal output (eGFP expression) was measured as Relative Fluorescence Units (RFU) and normalised to cell density (OD600). The background auto-fluorescence of E. coli was subtracted from RFU/OD and was normalised (%) to the pLC biosensor response curve to ferulic acid for each experiment. The normalised data was plotted and fitted with a dose-response curve using the Levenberg Marquardt logistic growth/sigmoidal algorithm, using the Origin 2015 (OriginLab, Northampton MA USA) program. The biomass screening data was […]

PLC biosensor [2] = assay: PLC biosensor eGFP expression in E. coli K strain (DH10B, Top10F'); assay type: cell-based
Experimental: as §1, §2, §3, §4, §5, §6, §7, §8, §9, §10

[3] = tested on: ferA knock-out (AKO) PLC and PferB systems; assay: FerA knock-out (AKO) system FA induction assay; assay type: cell-based; details: ferA knock-out (AKO) strains, E. coli BL21
Text: as §2, §3
The construct was cloned in a p15 plasmid flanked by NaeI/KasI restriction sites generating the p15FerCA vector. The ferA gene was removed by restriction digestion of two XbaI flanking sites. The remaining backbone with ferC was re-circularized to originate the p15FerC vector, and the obtained plasmid was sequenced to confirm identity.
as §6
Reporter controls and the biosensor systems PLC, PPC and PferB were respectively generated by transformation of pET44PLCeGFP, pET44PPCeGFP and pET44PFerBeGFP vectors alone or with p15FerCA in BL21 and DH10B chemically competent E. coli cells. […] Expression output was analyzed by monitoring the fluorescence normalised to cell density (RFU/OD) in a multimode plate reader. […]

PPC biosensor [4] = assay: PPC biosensor eGFP expression (RFU/OD600) in E. coli BL21; assay type: cell-based
Experimental: as §1, §2, §3, §4, §5, §6, §7, §8, §9, §10

PferB biosensor [5] = assay: PferB biosensor eGFP expression in E. coli K strain (DH10B, Top10F'); assay type: cell-based
Experimental: as §1, §2, §3, §4, §5, §6, §7, §8, §9, §10

PLC biosensor [6] = assay: microbe, parasite or virus in culture; assay type: cell-based, E. coli BL21
Experimental: as §1, §2, §3, §4, §5, §6, §7, §8
Compounds for screening were selected using cinnamic acid as a reference structure. The 58 selected compounds were tested with the PLC biosensor in E. coli BL21 cells. The substrate screening assays were performed using concentrations ranging from 0.32 μM to 1000 μM, as described for Ferulic acid. […]
as §9, §10

PferB biosensor [7] = assay: PferB biosensor eGFP expression (RFU/OD600) in E. coli BL21; assay type: cell-based
Experimental: as §1, §2, §3, §4, §5, §6, §7, §8, §9, §10

[8] = ferulic acid dose response, PPC biosensor, Top10F' (DH10B)
[9] = PLC biosensor, E. coli K strain (DH10B)
[10] = ferulic acid dose response, PLC biosensor, Top10F' (DH10B)
[11] = ferulic acid dose response, PPC biosensor, E. coli BL21
[12] = ferulic acid dose response, PferB biosensor, Top10F' (DH10B)
[13] = Escherichia coli, BL21, ferulic acid dose response, PLC biosensor, E. coli BL21
[14] = Escherichia coli, BL21, substrate screening, PLC biosensor, E. coli BL21
[15] = ferulic acid, PLC biosensor, E. coli BL21, text
[16] = ferulic acid dose response, PferB biosensor, E. coli BL21

## COc1cc(/C=C/C(=O)O)ccc1O [compound 1, trans-Ferulic acid]
PPC biosensor [1]; Escherichia coli
  EC50: 10.4 µM
  EC90: 33.3 µM
PPC biosensor [1]; PPC biosensor, E. coli K strain (DH10B)
  De-repression: complete de-repression
PPC biosensor [1]; [8]
  EC10: 3.3 µM
  Ebasal (fitting curve): 4.7 RFU/OD
  Emax (fitting curve): 44.7 RFU/OD
  Sensing range (EC90/EC10): 10.2
  Signal range (max/min): 12.4
  p (fitting curve): 1.9
PLC biosensor [2]; Escherichia coli
  EC50: 22.8 ± 5.2 µM
  EC90: 83 µM
PLC biosensor [2]; [9]
  De-repression: incomplete de-repression
  Relative signal range: ~19 fold
  Sensing range (EC90/EC10): 13 fold
PLC biosensor [2]; [10]
  EC10: 6.3 µM
  Ebasal (fitting curve): 6.1 RFU/OD
  Emax (fitting curve): 100.0 RFU/OD
  Sensing range (EC90/EC10): 13.3
  Signal range (max/min): 19.2
  p (fitting curve): 1.7
[3]
  De-repression phenotype upon addition to growth media: lacked the de-repression phenotype
PPC biosensor [4]; Escherichia coli, BL21
  EC50: 11.2 ± 1.1 µM
  EC90: 38 µM
PPC biosensor [4]; [11]
  Concentration for complete de-repression: ≥ 40 µM
  EC10: 3.3 µM
  Ebasal (fitting curve): 4.2 RFU/OD
  Emax (fitting curve): 46.6 RFU/OD
  Sensing range (EC90/EC10): 11.5
  Signal range (max/min): 10.4
  p (fitting curve): 1.8
PferB biosensor [5]; Escherichia coli
  EC50: 79.6 µM
  EC90: 276 µM
PferB biosensor [5]; PferB biosensor, E. coli K strain (DH10B)
  De-repression: complete de-repression
PferB biosensor [5]; [12]
  EC10: 22.9 µM
  Ebasal (fitting curve): 4.3 RFU/OD
  Emax (fitting curve): 20.5 RFU/OD
  Sensing range (EC90/EC10): 12.0
  Signal range (max/min): 4.7
  p (fitting curve): 1.8
PLC biosensor [6]; [13]
  EC10: 5.6 µM
  EC50: 20.9 ± 4.2 µM
  EC90: 77.4 µM
PLC biosensor [6]; Escherichia coli, BL21, read-out: Induction
  Emax: > 70%
PLC biosensor [6]; Escherichia coli, BL21, read-out: Signal range (max/min), ferulic acid dose response, PLC biosensor, E. coli BL21
  maximal fold induction: 22.8
PLC biosensor [6]; Escherichia coli, BL21, read-out: Signal range (max/min), substrate screening, PLC biosensor, E. coli BL21
  maximal fold induction: 26.2
PLC biosensor [6]; [14]
  EC10: 3.9 µM
  EC50: 15.3 ± 0.9 µM
  EC90: 59.5 µM
PLC biosensor [6]; ferulic acid dose response, PLC biosensor, E. coli BL21
  Saturation concentration: ≥ 100 µM
PLC biosensor [6]; ferulic acid, PLC biosensor, E. coli BL21
  De-repression (incomplete), % of the PLC reporter: ~85%
PLC biosensor [6]; [15]
  Sensing range: 13 fold
  Signal range: ~23 fold
PLC biosensor [6]; substrate screening, PLC biosensor, E. coli BL21, 0.32–1000 μM
  Induction: H (high output signals, and hence good efficacy (>70%))
PLC biosensor [6]; substrate screening, PLC biosensor, E. coli BL21, text
  Signal read-out range: > 25 fold
PferB biosensor [7]; Escherichia coli, BL21
  EC50: 60.5 ± 2.3 µM
  EC90: 191 µM
PferB biosensor [7]; [16]
  EC10: 19.2 µM
  Ebasal (fitting curve): 3.7 RFU/OD
  Emax (fitting curve): 17.0 RFU/OD
  Sensing range (EC90/EC10): 9.9
  Signal range (max/min): 5.0
  p (fitting curve): 1.9
PferB biosensor [7]; ferulic acid, PferB biosensor, E. coli BL21
  De-repression: effectively de-repressed
